Test results from US20210347813A1, “COMPOUNDS WITH HIV MATURATION INHIBITORY ACTIVITY” (priority 2018, published 2021).

What was measured:
[1] = Single dose mouse PK study, oral dose of prodrug or parent, parent MI #3 measured; type: in vivo; details: male CD1 mice, PO 5 mg/kg
Experimental: A single dose mouse PK study was conducted following an oral dose of the prodrug that was prepared as Example 1, being dosed and measuring parent maturation inhibitor (MI) #3, and compared to PK parameters with Parent MI #3 being dosed in male CD1 mice. In the current study, the formulation for parent MI #3 was 0.5% Methocel A4M:0.1% Tween 80:99.4% water. For the prodrug of Example 1, the formulation was 2% Dimethylacetamide:10% ethanol: 87.5% PEG 400:0.5% Tween 80.
Following oral administration of the prodrug, all prodrug concentrations at all timepoints were BLQ. As shown in the table below the exposure of the parent MI #3 obtained from dosing the prodrug was higher than that seen with dosing a crystalline suspension of the parent MI #3.

[2] = MI Parent #3 mouse PK, IV solution; type: in vivo; details: dose 1 (printed mg)
[3] = Mouse PK after subcutaneous (SQ) suspension doses, MI #3 measured in plasma; type: in vivo; details: male CD-1 mice, SQ 20 mg/kg suspension, MI Parent #3 measured in plasma
Experimental: FIG. 1 is a graph of concentration vs. time from plasma of MI #3 in ng/mL vs time in hours following subcutaneous (SQ) doses of MI3 # or the prodrugs from Examples 3, 4, and 5 as suspensions in 1% Kolliphor P 188/2% PEG 3350/3.5% Mannitol/93.5% water at 20 mg/kg to male CD-1 mice. […] Exposure of Parent MI #3 decreased 23-fold, 16-fold, and 3-fold after administration of Example 3, 4 and 5, respectively. The presence of the prodrugs was not observed in plasma. Although the exposure is lower than when dosed with parent itself, the half-life of Parent MI #3 is longer after administration of all three prodrugs showing the potential to be useful for less frequent dosing.
Subcutaneous (SQ) doses of each of the compounds from Examples 3, 4, and 5 as suspensions (Dose conc. 4 mg/mL, Dose volume 5 mL/kg) in 1% Kolliphor P 188/2% PEG 3350/3.5% Mannitol/93.5% water at 20 mg/kg to 3 male CD-1 mice (Cr1:CD1 (ICR)) Charles River Laboratories, 25-30gs at dose initiation, age as appropriate for weight. The concentration of Parent MI #3 and prodrugs were measured in the plasma of animals of all three groups at time points of 0.5, 1, 3, 5, 7, 24, 48, 72, 96, 120, 144, and 168 hours. The collection conditions were K2EDTA and the volume/timepoint was 30 μL. The presence of the prodrugs was not observed in plasma for any group.
LC-MS/MS methods were developed to quantitate both prodrugs and parent in plasma. The samples were analyzed in duplicate. Two sets of standard curves and three levels of QCs were run in each plate. Both the standards and QCs were run in duplicate. The table below is a summary of the protocols and guidance that was supplied to the scientists who carried out the experiments.

[4] = Rat PK after single intramuscular (IM) administration of prodrugs, parent MI #1 measured in plasma; type: in vivo; set-up: unit not given here; details: male SD rats, IM 20 mg/kg
Excerpt: FIG. 2 is a concentration vs time curve of the plasma concentrations of parent MI #1 following a single Intramuscular (IM) administration of the Prodrugs and parent MI #1 to male SD rats. […] Additional pharmacokinetic data collected from the same experiments summarized in FIG. 2 is contained in the table below.
Animal strain: Sprague Dawley (SD) rat, purchased from Shanghai SLAC Laboratory Animal Co., Ltd. Sex: male; Age: 6-8 weeks; BW: 200-250 g, N=30 rats (N=3 per prodrug); Food status: Free access to food and water for the entire in-life phase.
Dose: 20 mg/kg (2 mL/kg, 10 mg/mL), IM injection; Formulation: 1% Kolliphor P188+4.5% Mannitol+94.5% Milli-Q Water;
N=3 rats/time point for each compound via IM administration
Sampling at 0.5, 1, 3, 5 and 7 hr, 1, 2, 3, 4, 5, 6 and 7 days post dose then 2×/week for a total of 8 weeks, 12*8 time points, serial bleeding for plasma only.
* Weekly interim analysis of the plasma samples (12 time points) to get an early read on the PK of the construct Blood collection and processing: The animal was restrained manually and approximately 150 μL blood per time point was collected in tubes containing K2EDTA anticoagulant. The sample was centrifuged at 2200 g for 10 min at 2-8° C. for plasma. The plasma samples were stored immediately at −70° C.
LC-MS/MS method was developed to quantitate both prodrugs and parent in plasma. The samples were analyzed in duplicate. Two sets of standard curves and three levels of QCs were run in each plate. Both the standards and QCs were run in duplicate.
WinNonlin V 6.4 statistics software (Pharsight Corporation, California, USA) was used to generate pharmacokinetics parameters (Tmax, Cmax, T1/2, AUC, MRT etc).

HIV = details: cited from earlier work

C=C(C)[C@@H]1CC[C@]2(NCC[C@]3(O)CC[C@@H](S(C)(=O)=O)CC3)CC[C@]3(C)[C@H](CC[C@@H]4[C@@]5(C)CC=C(C6=CC[C@@](COc7ncccc7C#N)(C(=O)O)CC6)C(C)(C)[C@@H]5CC[C@]43C)[C@@H]12 [Parent MI #3, (S)-1-(((3-cyanopyridin-2-yl)oxy)methyl)-4-((1R,3aS,5aR,5bR,7aR,11aS,11bR,13aR,13bR)-3a-((2-((1s,4R)-1-hydroxy-4-(methylsulfonyl)cyclohexyl)ethyl)amino)-5a,5b,8,8,11a-pentamethyl-1-(prop-1-en-2-yl)-2,3,3a,4,5,5a,5b,6,7,7a,8,11,11a,11b,12,13,13a,13b-octadecahydro-1H-cyclopenta[a]chrysen-9-yl)cyclohex-3-enecarboxylic acid]
AUC0-24h norm [1]: 3.7 μg/mL *h/dose | AUC0-last [1]: 18000 ng·h/mL | Bioavailability [1]: 5.0 % F | C24 [1]: 0.03 µg/mL | Cmax [1]: 1300 ng/mL | Tmax [1]: 4.7 h | %AUCextra [2]: 24.8% | AUClast [2]: 64197 ng·h/mL | AUCtot [2]: 87808 ng·h/mL | Clearance [2]: 0.20 mL/min/kg | MRT [2]: 22.2 h | Vss [2]: 0.25 L/kg | t(1/2) [2]: 16.3 h | %AUCextra [3]: 12.3% | AUClast [3]: 449442 ng·h/mL | AUCtot [3]: 515257 ng·h/mL | Bioavailability [3]: 35 % F | Cmax [3]: 6563 ng/mL | t(1/2) [3]: 58.3 h

C=C(C)[C@@H]1CC[C@]2(NCCN3CCS(=O)(=O)CC3)CC[C@]3(C)[C@H](CC[C@@H]4[C@@]5(C)CC=C(C6=CC[C@@](CF)(C(=O)OCOC(=O)CCCCCCC)CC6)C(C)(C)[C@@H]5CC[C@]43C)[C@@H]12 [Example 19, (Octanoyloxy)methyl (R)-4-((1R,3aS,5aR,5bR,7aR,11aS,11bR,13aR,13bR)-3a-((2-(1,1-dioxidothiomorpholino)ethyl)amino)-5a,5b,8,8,11a-pentamethyl-1-(prop-1-en-2-yl)-2,3,3a,4,5,5a,5b,6,7,7a,8,11,11a,11b,12,13,13a,13b-octadecahydro-1H-cyclopenta[a]chrysen-9-yl)-1-(fluoromethyl)cyclohex-3-ene-1-carboxylate]
AUCINF (day) [4]: 1393

C=C(C)[C@@H]1CC[C@]2(NCCN3CCS(=O)(=O)CC3)CC[C@]3(C)[C@H](CC[C@@H]4[C@@]5(C)CC=C(C6=CC[C@@](CF)(C(=O)OCOC(=O)C(C)C)CC6)C(C)(C)[C@@H]5CC[C@]43C)[C@@H]12 [Example 21, (Isobutyryloxy)methyl (R)-4-((1R,3aS,5aR,5bR,7aR,11aS,11bR,13aR,13bR)-3a-((2-(1,1-dioxidothiomorpholino)ethyl)amino)-5a,5b,8,8,11a-pentamethyl-1-(prop-1-en-2-yl)-2,3,3a,4,5,5a,5b,6,7,7a,8,11,11a,11b,12,13,13a,13b-octadecahydro-1H-cyclopenta[a]chrysen-9-yl)-1-(fluoromethyl)cyclohex-3-ene-1-carboxylate]
AUCINF (day) [4]: 1682

C=C(C)[C@@H]1CC[C@]2(C(=O)O)CC[C@]3(C)[C@H](CC[C@@H]4[C@@]5(C)CC[C@H](OC(=O)CC(C)(C)C(=O)O)C(C)(C)[C@@H]5CC[C@]43C)[C@@H]12 [Bevirimat]
reduction of HIV viral load (mean) (HIV; patients with trough levels >=20 μg/mL and no key baseline Gag polymorphisms at Q369, V370 or T371): 1.3 log10/mL | viral load reduction vs patients without Gag polymorphisms (HIV; users with Gag polymorphisms at Q369, V370 or T371): significantly lower load reductions

C=C(C)[C@@H]1CC[C@]2(NCCN3CCS(=O)(=O)CC3)CC[C@]3(C)[C@H](CC[C@@H]4[C@@]5(C)CC=C(C6=CC[C@@](CF)(C(=O)OCOC(=O)CCCCC)CC6)C(C)(C)[C@@H]5CC[C@]43C)[C@@H]12 [Example 18, (Hexanoyloxy)methyl (R)-4-((1R,3aS,5aR,5bR,7aR,11aS,11bR,13aR,13bR)-3a-((2-(1,1-dioxidothiomorpholino)ethyl)amino)-5a,5b,8,8,11a-pentamethyl-1-(prop-1-en-2-yl)-2,3,3a,4,5,5a,5b,6,7,7a,8,11,11a,11b,12,13,13a,13b-octadecahydro-1H-cyclopenta[a]chrysen-9-yl)-1-(fluoromethyl)cyclohex-3-ene-1-carboxylate]
AUCINF (day) [4]: 2100
